Where “and” joins values, the source holds several entries; their conditions need not be identical. Equal values may be shown once.
Tests used:
[1] = target: T1, human His6Gal-3 (Homo sapiens, UniProt P17931); assay: Competitive inhibition of Gal-3 binding to immobilized asialofetuin (ASF), ELISA-type; details: for IC50: inhibition of Gal-3 binding to immobilized ASF (5 pmol), 1 h in PBS; for Relative Potency: from IC50, relative to free tetrasaccharide 6 (13 series) or 7 (14 series); for Relative Potency per Glycan: inhibitory potency per glycan, relative to 6 (13 series) or 7 (14 series)
T1 construct: made in house; host or cells: Escherichia coli Rosetta (DE3) pLysS
T1 sequence (P17931 whole entry): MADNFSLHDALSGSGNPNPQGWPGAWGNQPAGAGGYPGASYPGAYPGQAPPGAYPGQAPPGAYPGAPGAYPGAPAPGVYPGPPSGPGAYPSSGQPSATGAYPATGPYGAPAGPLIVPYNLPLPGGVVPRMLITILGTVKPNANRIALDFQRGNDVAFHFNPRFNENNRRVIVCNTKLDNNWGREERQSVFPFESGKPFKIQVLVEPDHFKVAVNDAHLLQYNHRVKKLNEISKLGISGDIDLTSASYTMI
Experimental: Neo-glycoproteins 13b, 13d, 13e and 14b, 14d, 14e, as well as glycans 1, 2, 6 and 7 were used in a competitive inhibition assay. Asialofetuin (ASF, 5 pmol in PBS) as the standard glycoprotein was immobilized overnight in microtiter plates (MaxiSorp, Nunc). After blocking as described before, different concentrations of inhibitor and His6Gal-3 were simultaneously incubated for one hour in PBS. Residual bound galectin was detected as described above. Evaluation of the measured data was done using Sigma Plot. All assays were reproduced in at least three independent measurements.

[2] = target: T1, human His6Gal-3; assay: ELISA-type binding of Gal-3 to immobilized glycans and neo-glycoproteins; details: for Gal-3 binding to immobilized tetrasaccharide (in words): glycan (5 nmol) immobilized on aminoreactive surface; for selectivity for Gal-3 binding compared with Gal-1 (in words): immobilized glycans, 1 µM protein concentration
Experimental: (§1) The synthesized glycans and neo-glycoproteins were analyzed for binding of Gal-3 and Gal-1 in 96-well microtiter plate formats. Glycans 11 and 12, as well as the corresponding LacNAc-LacNAc-linker-NH2 1a and LacdiNAc-LacNAc-linker-NH2 2a (deprotected forms of 1 and 2) were immobilized via the amino group in aminoreactive microtiter plates (Immobilizer Amino, Nunc, Wiesbaden, Germany). The immobilization of 5 nmol glycan in sodium carbonate buffer (100 mM, pH 9.6) was done overnight. For immobilizing neo-glycoproteins, 5 pmol protein were incubated in PBS (pH 7.5) in MaxiSorp microtiter plates (Nunc) overnight. Wells were then washed with PBS-Tween (0.05% (v/v)) and blocked with 2% BSA in PBS followed by incubation for one hour with galectins diluted in EPBS. Incubation with anti-His6-peroxidase (Roche) was done subsequently. Microtiter plates were read out at 495 nm after conversion of OPD substrate (o-phenylenediamine, Dako, Hamburg, Germany). Measured data were analyzed using Sigma Plot (Systat software GmbH, Erkrath, Germany).

[3] = target: T2, human His6Gal-1C2S (Homo sapiens, UniProt P09382, C3S); assay: ELISA-type binding of Gal-1 to immobilized glycans and neo-glycoproteins; details: 1 µM Gal-1, immobilized ligand 5 pmol per well
T2 construct: made in house; host or cells: Escherichia coli Rosetta (DE3) pLysS
T2 sequence (P09382 whole entry C3S): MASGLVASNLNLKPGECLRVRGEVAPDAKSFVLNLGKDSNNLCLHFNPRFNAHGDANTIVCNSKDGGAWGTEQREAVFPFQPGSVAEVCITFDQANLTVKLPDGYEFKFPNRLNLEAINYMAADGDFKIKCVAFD
Experimental: as §1

[4] = target: T1, human His6Gal-3; assay: Surface plasmon resonance with immobilized Gal-3; type: binding; details: SPR, ligand in flow (20 µL/min) over immobilized Gal-3, one concentration, fit with Scrubber2; read-out: Apparent KD
Experimental: SPR spectroscopy was done with Reichert SR7500DC System (XanTec bioanalytics, Düsseldorf, Germany) and carboxymethyldextran hydrogel sensor chips complexed with Ni^2+ ions (200M, XanTec bioanalytics). These surfaces allow reversible immobilization of His6-tagged proteins. Human His6Gal-3 (5 pmol in EPBS) was immobilized on the sample channel with a flowrate of 10 µL/min after 5 mM NiCl2 solution was injected. The reference channel stayed untreated.
The binding experiments were carried out with a flow rate of 20 µL/min by injecting neo-glycoproteins 13a–f and 14a–f (2 pmol in PBS) and recently synthesized neo-glycoproteins 15a–f and 16a–f (2 pmol in PBS), as well as BSA and ASF as the control. The dissociation time was three minutes. Between the measurements, the surface was regenerated with 0.5 M Na EDTA (pH 8.5) to remove Ni^2+ together with Gal-3. Each cycle started with NiCl2 followed by Gal-3 application.
The measured data were subtracted by reference values and analyzed using Integrated SPRAutolink (Reichert technologies, Depew, NY, USA) and Scrubber2 (version 2.0c, BioLogic Software, Campbell ACT, Australia).

## CC(=O)N[C@@H]1[C@@H](O)[C@H](O[C@@H]2O[C@H](CO)[C@H](O)[C@H](O[C@@H]3O[C@H](CO)[C@@H](O[C@@H]4O[C@H](CO)[C@H](O)[C@H](O)[C@H]4O)[C@H](O)[C@H]3NC(C)=O)[C@H]2O)[C@@H](CO)O[C@H]1NC(=S)NCCNC(=O)OC(C)(C)C [Compound 1, LacNAc-LacNAc-linker-NH2-tBoc]
[1]
  IC50: 14 µM

## CC(=O)N[C@@H]1[C@@H](O)[C@H](O[C@@H]2O[C@H](CO)[C@H](O)[C@H](O[C@@H]3O[C@H](CO)[C@@H](O[C@@H]4O[C@H](CO)[C@H](O)[C@H](O)[C@H]4NC(C)=O)[C@H](O)[C@H]3NC(C)=O)[C@H]2O)[C@@H](CO)O[C@H]1NC(=S)NCCNC(=O)OC(C)(C)C [Compound 2, LacdiNAc-LacNAc-linker-NH2-tBoc]
[1]
  IC50: ~8 µM

## CC(=O)N[C@@H]1[C@@H](O)[C@H](O[C@@H]2O[C@H](CO)[C@H](O)[C@H](O[C@@H]3O[C@H](CO)[C@@H](O[C@@H]4O[C@H](CNNC(=O)CCCCCNC(=O)CCCC[C@@H]5SCC6NC(=O)NC65)[C@H](O)[C@H](O)[C@H]4O)[C@H](O)[C@H]3NC(C)=O)[C@H]2O)[C@@H](CO)O[C@H]1NC(=S)NCCNC(=O)OC(C)(C)C (some centres unmarked) [Compound 6, 6-biotin LacNAc-LacNAc-linker-NH2-tBoc]
[1]
  Relative Potency: 1.0 ± 0.1
  IC50: 14 µM and 14.8 µM
  Relative Potency per Glycan: 1.0 ± 0.1

## CC(=O)N[C@@H]1[C@@H](O)[C@H](O[C@@H]2O[C@H](CO)[C@H](O)[C@H](O[C@@H]3O[C@H](CO)[C@@H](O[C@@H]4O[C@H](CNNC(=O)CCCCCNC(=O)CCCC[C@@H]5SCC6NC(=O)NC65)[C@H](O)[C@H](O)[C@H]4NC(C)=O)[C@H](O)[C@H]3NC(C)=O)[C@H]2O)[C@@H](CO)O[C@H]1NC(=S)NCCNC(=O)OC(C)(C)C (some centres unmarked) [Compound 7, 6-biotin LacdiNAc-LacNAc-linker-NH2-tBoc]
[1]
  Relative Potency: 1.0 ± 0.2
  IC50: 7.66 ± 1.24 µM
  Relative Potency per Glycan: 1.0 ± 0.2

## CC(=O)N[C@@H]1[C@@H](O)[C@H](O[C@@H]2O[C@H](CO)[C@H](O)[C@H](O[C@@H]3O[C@H](CO)[C@@H](O[C@@H]4O[C@H](CNNC(=O)CCCCCNC(=O)CCCC[C@@H]5SCC6NC(=O)NC65)[C@H](O)[C@H](O)[C@H]4O)[C@H](O)[C@H]3NC(C)=O)[C@H]2O)[C@@H](CO)O[C@H]1NC(=S)NCCN (some centres unmarked) [Compound 8]
[2]
  Gal-3 binding to immobilized tetrasaccharide (in words): high binding signals
  selectivity for Gal-3 binding compared with Gal-1 (in words): high selectivity

## CC(=O)N[C@@H]1[C@@H](O)[C@H](O[C@@H]2O[C@H](CO)[C@H](O)[C@H](O[C@@H]3O[C@H](CO)[C@@H](O[C@@H]4O[C@H](CNNC(=O)CCCCCNC(=O)CCCC[C@@H]5SCC6NC(=O)NC65)[C@H](O)[C@H](O)[C@H]4NC(C)=O)[C@H](O)[C@H]3NC(C)=O)[C@H]2O)[C@@H](CO)O[C@H]1NC(=S)NCCN (some centres unmarked) [Compound 9]
[2]
  Gal-3 binding to immobilized tetrasaccharide (in words): highest binding
  selectivity for Gal-3 binding compared with Gal-1 (in words): high selectivity

## ASF: Asialofetuin, standard glycoprotein having nine N-glycosidic bound LacNAc units [reference compound]
[2]; 1 µM Gal-3, immobilized ligand 5 pmol per well
  Binding signal Galectin-3: 0.38 ± 0.10
[2]; Gal-3 concentration at half-maximal binding to immobilized ligand (5 pmol), one site saturation fit, read-out: Apparent Kd
  Kd: 1.26 ± 0.25 µM
[2]; from apparent Kd, in relation to ASF
  Relative Potency: 1.00 ± 0.20
[2]; from apparent Kd, in relation to ASF, per glycan
  Relative Potency per Glycan: 0.11 ± 0.02
[3]
  Binding signal Galectin-1: 0.40 ± 0.07
[4]
  Kd: 0.075 ± 0.002 µM

## LacNAc-LacNAc-linker-NH2 [Compound 1a]
[2]
  Gal-3 binding to immobilized tetrasaccharide (in words): rather weak

## LacdiNAc-LacNAc-linker-NH2 [Compound 2a]
[2]
  Gal-3 binding to immobilized tetrasaccharide (in words): essentially no binding

From PMC5590477, “Biotinylated N-Acetyllactosamine- and N,N-Diacetyllactosamine-Based Oligosaccharides as Novel Ligands for Human Galectin-3” (Bioengineering, 2017)
